The values that follow come from patent US20050004136A1, “Novel amidoalkyl-piperidine and amidoalkyl-piperazine derivatives useful as neurokinin receptor modulators” (priority 2000, published 2005).

SMILES strings stand for the structures.

For series [1], the system named is serotonin neural pathways. In words: DOI Headshake Model. Set-up: key: Active: A statistically significant decrease in the number of headshakes induced by the administration of DOI in the mice given the test compound relative to the mice given the control was an indication of modulation of the serotonin neural pathways and thus an indication of an active compound. As to conditions: DOI-induced headshakes, mice (NIH Swiss; starred compounds also CD-1); for Number of Headshakes, IP Admin: i.p., doses up to 100 mg/kg; for Number of Headshakes, Oral Admin.: doses up to 40 mg/kg. It counts as in vivo. The method, then:
Male CD-1 or NIH-Swiss mice were fasted overnight. The mice were given control vehicle or test compound by the oral or intraperitoneal (i.p.) routes of administration at doses up to 40 mg/kg orally and up to 100 mg/kg i.p. Administration time was denoted as t0. At each of several selected intervals after t0 (at about 45 min, 1 h, 2 h, 4 h, 6 h, 8 h, 24 h after administration), separate groups of mice were given 1-{2,5-dimethoxy-4-iodophenyl]-2-aminopropane (DOI), a known serotonin receptor type-2A agonist, by the intraperitoneal route of administration route. […] (Separate groups of mice were tested at each time interval.) Peak activity time, denoted as tp, was determined as the time of the greatest reduction in the number of DOI-induced headshakes for mice given the test compound compared to the number of headshakes for the mice given the control, measured at the same time interval.
A statistically significant decrease in the number of headshakes induced by the administration of DOI in the mice given the test compound relative to the mice given the control was an indication of modulation of the serotonin neural pathways and thus an indication of an active compound.
In vivo biological activity was measured for select compounds of the present invention as listed in Table 11, using the procedures outlined above. Starred (*) compounds were tested on both male CD-1 mice and NIH Swiss mice, all other compounds were tested using Swiss NIH mice.

Series [2] deals with rats. The experiment in a line: Elevated Plus Maze (EPM) Test. Set-up: key: Active = statistically significant (Mann Whitney U test p < 0.05) increase in open arm time or open arm entries at 10 mg/kg po. As to conditions: Long-Evans Hooded rats, 10 mg/kg po, one hour after dosing. In kind it is in vivo. The method, then:
(§1) Male Long-Evans Hooded rats weighing 180 to 200 grams were purchased from Charles River Inc (Portage MI). The rats were housed in groups of four at an ambient temperature of 21 to 23° C. in a room with an automated 12/12 hour light/dark cycle. The rats had access to water and a commercial rodent food ad libitum. At the time of the experiment the rats weighed 220 to 350 grams.
(§2) The assay was run with test compound or vehicle administered to the animals at time zero. Fifty minutes after administration, the animals were tested in the SMA (Spontaneous Locomotor Activity), which was completed in 10 minutes. Immediately following SMA testing, the rats were moved and tested in the EPM (elevated Plus Maze), which was also completed in ten minutes. Test compounds were suspended in an aqueous vehicle (MC) comprised of 0.5% Methylcellulose and administered p.o.
The elevated plus maze (EPM) is the most widely used animal test of anxiety. The fully quantitative computerized EPM has validity as an anxiety model from the theoretical basis and pharmacological responses. The EPM also has high ecological validity since it studies the spontaneous behavioral patterns in response to interactions with the environment.
The procedure is based on the natural aversion of rodents to explore open and high places, as well as their innate tendency for thigmotaxis. When rats are placed on the elevated-plus maze, they have a normal tendency to remain in the enclosed arms of the maze and avoid venturing into the open arms. Animals treated with typical or atypical anxiolytics show an increase in the percentage of time spent (% Time) and/or the percentage of entries made (% Entries) into the open arms.
The test apparatus used consisted of a black plastic maze with two open arms and two arms with 40 cm high walls (enclosed arms) of equal length (50 cm) extending from the center at right angles, such that arms of similar type were opposite each other. Each plus-maze was elevated approximately 60 cm above the floor. Infrared photo-beams that crossed the entrance of each arm and the center of the maze detected the exploratory activity of an animal in the maze. […]
Anxiolytic activity of a test compound was quantified using two parameters: a) the percent of total time spent by a rat in one of the two open arms of the apparatus (% open arm time) which was calculated as follows: [formula] • and b) the number of times a rat entered the open arms relative to the total entries into all arms and the center area (% open arm entries), calculated as follows: [formula]
Data were analyzed for statistical significance between drug and vehicle-treated groups via one tailed Mann-Whitney T-Test. […]

Series [3] relates to rats. The experiment in a line: Spontaneous Locomotor Activity (SMA) Test. As to conditions: Long-Evans Hooded rats, 10 mg/kg po, 50 minutes after administration; decrease = sedation. It counts as in vivo. The arrangement: key: Increase = statistically significant (Mann Whitney U test p < 0.05) increase in horizontal activity and vertical movements indicating lack of sedation or motor impairment at 10 mg/kg po. As to the method:
as §1, §2
The test apparatus consisted of a plastic cubicle (40.6 cm, length; 40.6 cm, width; 30.5 cm, height) that was placed in the center of a main frame. Photocell sensors (8 beams from front to back and 8 beams from side to side) were built into the sides of the frame for monitoring horizontal movement. The photocells were located at right angles to each other, projecting horizontal infrared beams of light 5 cm apart and 2 cm above the floor to measure horizontal activity, and 5 cm apart and 14 cm above the floor to measure vertical activity. Rats were divided into groups (N=8 to 12). Test compound or vehicle was administered orally by gavage in a dose volume equivalent to 5 mL/kg. At 50 minutes after administration each rat was placed into a separate plastic cubicle and spontaneous exploratory activity was recorded for 10 minutes. Horizontal and vertical movements of the rats were recorded by counting the number of times the beams of light were interrupted (horizontal and vertical counts). Collection of the data and preliminary data analysis was automated. A drug-induced decrease in spontaneous horizontal or vertical motor activity was regarded as an indication of sedation.
HA data were analyzed for statistical significance between drug and vehicle-treated groups that were administered either the vehicle or each dose of the test compound by a one-way analysis of variance. Then Dunnett's multiple comparison method was used to test for a reduction (p<0.05, 1-tailed) in the average number of HA counts or VM counts in drug-treated groups, compared to a concurrently run vehicle-treated group. If the probability was less than 5% (p<0.05) that a decrease in HA and/or VM in the drug-treated group compared to a concurrently run vehicle-treated group was due to chance, then the dose of the test compound was considered to have sedative activity. Mann-Whitney T-Test is used in cases where the distribution of the data is non-gaussian.

In a further series the test system is cisplatin induced emesis. The experiment in a line: Anti-emetic test, cisplatin induced emesis. In kind it is in vivo, shrew. Particulars: shrews, 20 mg/kg, administered subcutaneously; statistically significant reduction. As to the method:
The effectiveness of a test compound to inhibit emesis in the shrew were determined according to the procedure described in Darmani, N. A. Serotonin 5-HT3 receptor antagonists prevent cisplatin-induced emesis in Cryptosis parva: a new experimental model of emesis. J Neural. Transm. 1998, 105, 1143-1154.

Series [4] deals with Senktide-induced headshake. The experiment in a line: Reversal of Senktide-induced head shake in mice. The arrangement: key: Active = a statistically significant (Mann-Whitney t-test (one-tailed)) reduction in the headshakes produced by senktide (5 mg/kg), in animals dosed with test compound 10 mg/kg po. In kind it is in vivo. As to conditions: NIH-Swiss mice, test compound 10 mg/kg po, senktide 5 mg/kg sc 45 min later, 10 min count. The method, then: The in vivo assay measuring the reversal of Senktide-induced headshake in mice has been previously described in the literature by Sarau, H. M., et al in J. Pharmacol. Exp. Therapeutics (2000), 295 pp 373-381.
Briefly, overnight fasted NIH-Swiss mice weighing 18-21 gms were treated with test compound or vehicle by the oral (gavage) route, at various concentrations. Forty five (45) minutes after administration, the animals are injected subcutaneously (sc) with Senktide at a concentration of 5 mg/kg. Immediately after administration of the Senktide, the animals are randomized and laced into isolated observation chambers and the number of headshakes per recorded over a ten (10) minute period. A decrease in the number of Senktide induced headshakes for test compound treated animals as compared with vehicle treated animals (analysis completed using Mann-Whitney t-test (one tailed)) was taken as an indication of anxiolytic activity for the compound.
Representative compounds of the instant invention were tested for reversal of Senktide-induced headshakes in mice, with results as listed in Table 12.

In the case of `O=C(CN1CCN(C(=O)c2cccc(C#Cc3ccccn3)c2)CC1)Nc1ccccc1` [Compound 106, N-phenyl-4-[3-(2-pyridinylethynyl)benzoyl]-1-piperazineacetamide], in series [1], the “Number of Headshakes, IP Admin” value is reported as “Active” and the “Number of Headshakes, Oral Admin.” value is given as “Active”.

On to `O=C(CN1CCN(C(=O)c2cccc(NCc3cc(C(F)(F)F)cc(C(F)(F)F)c3)c2)CC1)Nc1ccccc1` [Compound 501, 4-[3-[[[3,5-bis(trifluoromethyl)phenyl]methyl]amino]benzoyl]-N-phenyl-1-piperazineacetamide], for which the “Number of Headshakes, Oral Admin.” value in series [1] is “Inactive”.

`O=C(CC1CCN(C(=O)c2ccc(/C=C\c3ccncc3)cc2)CC1)Nc1ccccc1` [Compound 73, N-phenyl-1-[4-[(Z)-2-(4-pyridinyl)ethenyl]benzoyl]-4-piperidineacetamide]: in series [1], the “Number of Headshakes, IP Admin” value was “Active” and the “Number of Headshakes, Oral Admin.” value is “Active”.

`O=C(CC1CCN(C(=O)c2cccc(C#Cc3ccccn3)c2)CC1)Nc1ccc(O)cc1` [Compound 75, N-(4-hydroxyphenyl)-1-[3-(2-pyridinylethynyl)benzoyl]-4-piperidineacetamide]: in the series with rats [2], the “Increase % Open Arm Entries” value is given as “Active” and the “Increase % Open Arm Time” value is recorded as “Active”. Further, in series [1], the “Number of Headshakes, IP Admin” value is “Active” and the “Number of Headshakes, Oral Admin.” value is reported as “Active”. Besides, in the series on rats [3], the “SMA Horizontal Activity” value is recorded as “Increase” and the “SMA Vertical Movement” value is listed as “Increase”.

As to `O=C(CC1CCN(C(=O)c2cccc(C#Cc3ccccn3)c2)CC1)Nc1ccccc1` [Compound 10, N-phenyl-1-[3-(2-pyridinylethynyl)benzoyl]4-piperdineacetamide], in the series with rats [2], the “Increase % Open Arm Entries” value was “Active” and the “Increase % Open Arm Time” value was “Active”. Moreover, in series [1], the “Number of Headshakes, IP Admin” value is “Active” and the “Number of Headshakes, Oral Admin.” value is given as “Active”. For the same molecule, in the series on rats [3], the “SMA Horizontal Activity” value is given as “Increase” and the “SMA Vertical Movement” value was “Increase”. Moreover, the “cisplatin induced emesis in vivo test (reduction in cisplatin induced retching behavior)” value in the series with cisplatin induced emesis is recorded as “active”. Moreover, in series [4], the “Senktide Headshake Assay” value was “Active”.
